Measurements as given in patent publication US20240284907A1, “NOVEL DERIVATIVES OF NON-CODED AMINO ACIDS AND THEIR USE AS HERBICIDES” (FortePhest LTD., priority 2021, published 2024).

Assays:
Assay type in all cases: in vivo
[1] = tested on: Seeds of Lettuce R. (Super-Jericho); assay: Filter paper bioassay with lettuce seeds: germination and early plant development, Minimal Effective Concentration (MEC); details: lettuce seeds on filter paper, 0 to 1 mmol/l, visually assessed after 6 days
In short: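 Non-sterilized Super-Jericho lettuce seeds, 10 per dish, on filter paper wetted with aqueous test solution at 0–1 mmol/l. Kept 48 h dark, then 4 days at 6/18 dark/light. MEC is the lowest concentration causing no germination or radicle/shoot malformation by visual scoring at day 6; at least two repeats.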

[2] = tested on: Seeds of Lettuce R. (Super-Jericho); assay: Filter paper bioassay with lettuce seeds: germination, Fully Effective Concentration (FEC); details: lowest concentration mostly preventing lettuce seed germination, assessed after 6 days
Description: Materials: Seeds of Lettuce R. (Super-Jericho, non-sterilized) were obtained from Ben Shahar Moshe Ltd., 99% purity. The test compounds listed in the Table 2 below were synthetized de novo or purchased from different vendors.
Filter Paper Bioassays with Lettuce seeds: The protocol is following Bertin et al. 2009 and Movellan et al. 2014 with specified modifications as described below.
Seeds were placed on Whatman no. 1 filter paper (Whatman, Middlesex, U.K.) in Petri dishes (10 seeds per plate) with 2.0 ml of aqueous solution of a test material in concentration ranged from 0 (control) to 1 mmol/l were placed in a tray tilted at 45°. The trays were kept in dark for 48 hours and then transferred to the growth chamber with 6/18 dark/light cycle for 4 days. Each experiment was performed at least with two repeats.
The development of plants' radicle and shoots were visually assessed 6 days after the beginning of the test to determine Fully Effective Concentration (FEC) of a test material. In the context of the invention, FED is defined as the lowest concentration level of a test material that mostly preventing seeds germination.

[3] = tested on: Romaine lettuce (Lactuca sativa L.) plants; assay: Post-emergence herbicidal activity on potted Romaine lettuce plants (soil or foliar application); details: lettuce at 2 to 3 leaves, two weeks after treatment
Description: The tests were performed on Romaine lettuce (Lactuca sativa L.) plants at the stage 2 to 3 leaves. The plants were grown in mini-pots packed with soil, dimensions 2×2×5 cm, one plant per mini-pot. Test compounds were dissolved in 0.1% aqueous solution water solution of Silwet adjuvant to final concentrations ranging from 0 (Control) to 0.0001%. The test compounds were applied on soil (1 ml per pot) or foliar with airbrush (0.1 ml per pot). Each concentration was tested on 20 plants. Two weeks after the treatment the herbicidal effects of the respective test material were visually evaluated (aboveground part and roots. Then the aboveground part of the plants was neatly cut and weighed (wet weight) to assess the growth inhibition caused by the test compound. The growth inhibition (GI) was calculated as following: […]
Where Mt and Mc are median wet weight of treated and control plants, respectively. In the context of the invention, the herbicidal effect was assessed by concentration of the compound causing more than 85% of Growth Inhibition (GI) or irreversible damage of the plants (Table 3). Herbicidal activity of selected DHAAs is summarized in Table 4 (soil application) and Table 5 (Foliar application).

Compound	Score (activity score of Minimal Effective Concentration, MEC) [1]	FEC (Fully Effective Concentration) [2] [mM]	Score (test material causing more than 85% of Growth Inhibition or irreversible plant damage) ([3]; foliar application)	Score (test material causing more than 85% of Growth Inhibition or irreversible plant damage) ([3]; soil application)
2,2-difluoro-2-[5-(trifluoromethyl)-1,3-thiazol-2-yl]acetic acid [compound 5710]	Strong (0.01 mM)	0.100		
2,2-difluoro[2-(trifluoromethyl)-1,3-thiazol-5-yl]acetic acid [compound 5700]	Moderate (0.1 mM)	2.000		
2,5,8,11,14-pentaoxahexadecan-16-yl 2-(2-chloro-1,3-thiazol-4-yl)-2,2-difluoroacetate [compound 5778]	very strong	5.000	moderate (0.5)	
2-(2,5-dichlorothiophen-3-yl)-2,2-difluoroacetamide [compound 5636]	Strong (0.01 mM)	0.100		
2-(2-bromo-1,3-thiazol-4-yl)-2,2-difluoroacetic acid [compound 5730]	very strong	0.010	strong (0.01 to 0.05)	strong (0.01 to 0.05)
2-(2-methoxyethoxy)ethyl(2-chloro-1,3-thiazol-4-yl)(difluoro)acetate [compound 5746]	very strong	0.001	strong (0.01 to 0.05)	strong (0.01 to 0.05)
2-(2-methoxyethoxy)ethyl(2-chloro-1,3-thiazol-4-yl)(difluoro)acetate [compound 5771]	very strong	0.050	strong (0.01 to 0.05)	
2-(4-methylphenyl)-2-oxoethyl(2-chloro-1,3-thiazol-4-yl)(difluoro)acetate [compound 5738]	very strong	0.010	moderate (0.5)	strong (0.01 to 0.05)
2-chloro-4-(2-hydrazinylethyl)-1,3-thiazole [compound 5702]	Moderate (0.1 mM)	2.000		
2-oxo-2-(pyridin-2-yl)ethyl(2-chloro-1,3-thiazol-4-yl)(difluoro)acetate [compound 5740]	very strong	0.050		
2-oxo-2-phenylethyl(2-chloro-1,3-thiazol-4-yl)(difluoro)acetate [compound 5741]	very strong	0.050		
3-(2,5-dichlorothiophen-3-yl)-2-oxopropanoic acid [compound 5612]	Strong (0.01 mM)	0.100		
3-(2-chlorothiophen-3-yl)-3,3-difluoro-2-hydroxypropanenitrile [compound 5761]	Strong (0.01 mM)	0.100		strong (0.01 to 0.05)
NCCc1cc(Cl)sc1Cl [compound 584, 2-(2,5-dichlorothiophen-3-yl) ethan-1-amine]	moderate	0.500		weak (1.0)
NC(=O)Cc1cc(Cl)sc1Cl [compound 5609, 2-(2,5-dichlorothiophen-3-yl)acetamide]	Strong (0.01 mM)	1.000		
O=C(O)/C=C/c1sc(Cl)nc1Cl [compound 5622, (2E)-3-(2,4-dichloro-1,3-thiazol-5-yl)prop-2-enoic acid]	Moderate (0.1 mM)	1.000		
O=C(O)CNC(=O)C(F)(F)c1cc(Cl)sc1Cl [compound 5644, [2-(2,5-dichlorothiophen-3-yl)(difluoro)acetamido]acetic acid]	Strong (0.01 mM)	1.000		
NCCCCc1cc(Cl)sc1Cl [compound 5657, 4-(2,5-dichlorothiophen-3-yl)butan-1-amine]	Moderate (0.1 mM)	0.100		
O=C(OCc1ccccc1)C(F)(F)c1cc(Cl)sc1Cl [compound 5709, benzyl(2,5-dichlorothiophen-3-yl)(difluoro)acetate]	very strong	0.100	moderate (0.5)	
Cc1sc(C(F)(F)F)nc1C(F)(F)C(=O)O [compound 5717, 2,2-difluoro-2-[5-methyl-2-(trifluoromethyl)-1,3-thiazol-4-yl]acetic acid]	Strong (0.01 mM)	0.100		
O=C(O)C(F)(F)c1ccsc1C(F)(F)F [compound 5728, difluoro[2-(trifluoromethyl)thiophen-3-yl]acetic acid]	Strong (0.01 mM)	1.000	strong (0.01 to 0.05)	strong (0.01 to 0.05)
O=C(O)C(F)(F)c1nc(Cl)sc1F [compound 5751, (2-chloro-5-fluoro-1,3-thiazol-4-yl)(difluoro)acetic acid]	strong.strong	0.100		
O=C(Cc1ccc(Br)cc1)C(F)(F)c1csc(Cl)n1 [compound 5756, 3-(4-bromophenyl)-1-(2-chloro-1,3-thiazol-4-yl)-1,1-difluoropropan-2-one]	very strong	0.010		
O=C(Cc1csc(Cl)n1)OCc1ccccc1 [compound 5758, benzyl 2-(2-chloro-1,3-thiazol-4-yl)acetate]	Strong (0.01 mM)	0.100		
O=C(OCc1ccccc1)C(F)(F)c1csc(Cl)n1 [compound 5762, benzyl (2-chloro-1,3-thiazol-4-yl)(difluoro)acetate]	very strong	0.010		
NC(N)=NCCc1cc(Cl)sc1Cl [compound 5769, N″-[2-(2,5-dichlorothiophen-3-yl)ethyl]guanidine]	Strong (0.01 mM)	0.100		
N#Cc1cscc1C(F)(F)C(=O)O [compound 5779, (4-cyanothiophen-3-yl)(difluoro)acetic acid]	Strong (0.01 mM)	1.000		
(2-bromophenyl)methyl(2,5-dichlorothiophen-3-yl)(difluoro)acetate [compound 5747]	very strong	0.500	moderate (0.5)	moderate (0.5)
(4-bromophenyl)methyl(2,5-dichlorothiophen-3-yl)acetate [compound 5735]	strong.strong	0.500		
ethyl 2-(2-chloro-1,3-thiazol-4-yl)-2,2-difluoroacetate [compound 5784]	very strong	0.050		
